What was measured:
[1] = test system: Intraluminal pressure in the Heidenhain pouch; test: Intraluminal pressure in the Heidenhain pouch of the dog (increase in amplitude of rhythmical contractions); type: in vivo; conditions: Canis lupus familiaris, iv, fasted lightly restrained conscious, increase in amplitude of rhythmical contractions for at least 4-5 minutes
Experimental: 2. Intraluminal pressure in the Heidenhain pouch of the dog
Pressure changes were recorded via a saline filled catheter inserted, with airtight closure, into the fistula of a chronic Heidenhain pouch of the previously fasted and lightly restrained conscious dog. The catheter was connected to a physiological pressure transducer and pressure changes recorded on a hot wire pen recorder. Compounds were administered when the motility was in a phase of relatively low activity and the dose range determined which induced an increase in the amplitude of rhythmical contractions for a period of at least 4-5 minutes.

Intragastric pressure = Intragastric pressure in the rat (gastric motility, fasted conscious restrained rats); type: in vivo; conditions: sc, 40 min, s.c., intragastric pressure waves, 40 minute period following dosing
Experimental: 1. Intragastric pressure in the rat
Intragastric pressure changes were recorded from fasted conscious and restrained rats using a saline filled catheter inserted into the lumen of the stomach via a permanent gastric fistula. The catheter was connected to a physiological pressure transducer and pressure changes recorded on a hot wire pen recorder. An index of activity was obtained by measuring the average height of pressure waves during 10 minute periods. Values for 4 such periods were obtained during assessment of spontaneous activity prior to dosing and for the 40 minute period following dosing with compound or vehicle. The Student's "t" test was applied to the mean values obtained for activity prior to and post treatment. Groups of 10 animals were used for each treatment.

Compound | ED50 [1] | ED50 (Intragastric pressure)
COc1cc(N)c(Cl)cc1C(=O)NC1C2CCC1CN(C)C2 (racemic) [Example E1, (±) (8β)-4-Amino-5-chloro-2-methoxy-N-(3-methyl-3-azabicyclo[3,2,1]octan-8-yl)benzamide] | 0.05 mg/kg | 
CCN1CC2CCC(C1)C2NC(=O)c1cc(Cl)c(N)cc1OC (racemic) [Example E5, (±)(8β)-4-Amino-5-chloro-2-methoxy-N-(3-ethyl-3-azabicyclo[3,2,1]octan-8-yl)benzamide] | 0.01 mg/kg | 
COc1cc(N)c(Cl)cc1C(=O)NC1C2CCC1CN(C)C2 (racemic) [Example E2, (±) (8α)-4-Amino-5-chloro-2-methoxy-N-(3-methyl-3azabicyclo[3,2,1]octan-8-yl)benzamide] |  | 0.5 mg/kg

Source: patent US4719217A, “Certain N-azabicycloalkyl-benzamides useful in the treatment of impaired gastro-intestinal motility or emesis” (Beecham Group p.l.c., priority 1985, dated 1988)
